According to ChEMBL document CHEMBL1156268, “Michael acceptor based antiplasmodial and antitrypanosomal cysteine protease inhibitors with unusual amino acids” (J Med Chem, 2010):
Activity calls are given as the source filed them. The calls are words filed in the database; no cut-off is given here. Residues, ends and D or L forms follow the SMILES beside them. *: point of attachment. X1 = O=C(/C=C/CO)*

Assays:
Plasmodium falciparum [1] = test: Inhibition of Plasmodium falciparum recombinant falcipain-3 at 100 uM by standard fluorescence assay
[2] = Inhibition of Plasmodium falciparum recombinant falcipain-2 using Cbz-Leu-Arg-AMC as substrate by standard fluorescence assay
Plasmodium falciparum [3] = test: Antiplasmodial activity against Plasmodium falciparum W2 by flow cytometry; type: functional, organism-based
[4] = system: Trypanosoma brucei brucei; test: Antitrypanosomal activity against Trypanosoma brucei brucei; type: functional, organism-based
Plasmodium falciparum [5] = test: Antiplasmodial activity against Plasmodium falciparum W2 at 100 uM by flow cytometry; type: functional
[6] = target: Rhodesain (Trypanosoma brucei rhodesiense) (UniProt Q95PM0); test: Inhibition of Trypanosoma brucei rhodesiense recombinant rhodesain at 100 uM by standard fluorescence assay
[7] = system: Trypanosoma brucei brucei; test: Antitrypanosomal activity against Trypanosoma brucei brucei at 100 uM; type: functional, organism-based
Plasmodium falciparum [8] = test: Inhibition of Plasmodium falciparum recombinant falcipain-2 at 100 uM by standard fluorescence assay
[9] = Cytotoxicity against mouse J774.1 cells; type: cell-based
[10] = Inhibition of Plasmodium falciparum recombinant falcipain-3 by standard fluorescence assay

Rhodesain (Trypanosoma brucei rhodesiense), sequence (Q95PM0 1-450): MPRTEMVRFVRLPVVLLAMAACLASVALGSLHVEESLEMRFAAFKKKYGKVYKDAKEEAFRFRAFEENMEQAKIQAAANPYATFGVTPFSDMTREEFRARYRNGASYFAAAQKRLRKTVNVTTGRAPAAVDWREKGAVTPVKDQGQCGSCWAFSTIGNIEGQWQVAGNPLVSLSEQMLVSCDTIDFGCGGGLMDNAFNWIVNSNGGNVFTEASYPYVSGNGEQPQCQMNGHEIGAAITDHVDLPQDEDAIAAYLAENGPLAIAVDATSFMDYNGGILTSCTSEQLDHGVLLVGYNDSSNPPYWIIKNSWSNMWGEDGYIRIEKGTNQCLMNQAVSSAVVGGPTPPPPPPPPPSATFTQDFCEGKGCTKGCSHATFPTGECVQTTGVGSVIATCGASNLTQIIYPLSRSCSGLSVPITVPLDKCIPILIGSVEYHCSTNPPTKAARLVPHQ

inhibition (Plasmodium falciparum [1])	Ki [2] [µM]	IC50 (Plasmodium falciparum [3]) [µM]	IC50 [4] [µM]	inhibition [6]	inhibition (Plasmodium falciparum [8])	Ki [10] [µM]	Structure (SMILES)	inhibition (Plasmodium falciparum [5])	inhibition [7]	IC50 [9] [µM]	inhibition at 100 µM (Plasmodium falciparum [5]) [%]
inactive	54.3	100	17				CCOC(=O)/C=C\C(=O)OC[C@H](Cc1ccccc1)NC(=O)OC(C)(C)C				
inactive	37.7			inactive			CCOC(=O)/C=C/COC(=O)[C@H](CCC(N)=O)NC(=O)OC(C)(C)C	inactive	inactive		
inactive				inactive	inactive		CCOC(=O)/C=C/N[C@@H](CC(N)=O)C(=O)OC(C)(C)C	inactive	inactive		
inactive				inactive	inactive		CCOC(=O)/C=C/C(=O)N[C@@H](CC(N)=O)C(=O)OC(C)(C)C	inactive	inactive		
inactive				inactive	inactive		CCOC(=O)/C=C/CN[C@@H](CC(N)=O)C(=O)OC(C)(C)C	inactive	inactive		
inactive		75.3		inactive	inactive		CCOC(=O)/C=C/C(=O)N[C@@H](CCC(N)=O)C(=O)OC(C)(C)C		inactive		
inactive	26.1		8	15%			CCOC(=O)/C=C\C(=O)N[C@@H](Cc1ccccc1)C(=O)OCc1ccccc1			3.3	28
	17	34.8		inactive		58	CCOC(=O)/C=C/COC(=O)[C@H](CC(N)=O)NC(=O)OC(C)(C)C		inactive		
				11%	inactive		O=C(O)/C=C/C(=O)N[C@@H](Cc1ccccc1)C(=O)OCc1ccccc1	inactive	inactive		
inactive	25	50.3					C[C@H](NC(=O)[C@H](Cc1ccccc1)NC(=O)/C=C\C(=O)O)C(=O)OCc1ccccc1				
inactive	29.1		19	36%			CCOC(=O)/C=C/CCOC(=O)[C@H](Cc1ccccc1)NC(=O)OCc1ccccc1	inactive		> 100	
		43.1	29	47%	inactive		CCOC(=O)/C=C\CNC(=O)[C@@H](Cc1ccccc1)NC(=O)OC(C)(C)C				
			31.3	25%	inactive		CCOC(=O)/C=C/C(=O)O.CCOC(=O)/C=C/C(=O)OC[C@H](CCC(N)=O)NC(=O)[C@@H](NC(=O)OC(C)(C)C)c1ccccc1				
inactive				inactive	inactive		CCOC(=O)/C=C/C(=O)O.CCOC(=O)/C=C/C(=O)OC[C@H](CCC(N)=O)NC(=O)OC(C)(C)C	inactive	inactive		
	3.1	20.8		inactive		23.9	CCOC(=O)/C=C/COC(=O)[C@H](CCC(N)=O)NC(=O)[C@H](CC(C)C)NC(=O)[C@H](C)NC(=O)OC(C)(C)C		inactive		
	7.6	100		inactive		43	O=C(O)/C=C\C(=O)N[C@@H](Cc1ccccc1)C(=O)OCc1ccccc1		inactive		
inactive	152		25	inactive			CCOC(=O)/C=C/CN[C@@H](Cc1ccccc1)C(=O)OCc1ccccc1	inactive		36.1	
inactive	25		32	inactive			CCOC(=O)/C=C/COC(=O)[C@H](CCC(N)=O)NC(=O)[C@@H](NC(=O)OC(C)(C)C)C1CCCCC1	inactive			
inactive	20.3		2.8	inactive			C/C=C/C(=O)N[C@@H](Cc1ccccc1)C(=O)OCc1ccccc1	inactive		45.2	
inactive				inactive	inactive		CCOC(=O)/C=C/OC[C@H](CCC(N)=O)NC(=O)OC(C)(C)C	inactive	inactive		
inactive				inactive	inactive		CCOC(=O)/C=C/C(=O)O.CCOC(=O)/C=C/C(=O)OC[C@H](CC(N)=O)NC(=O)OC(C)(C)C	inactive	inactive		
inactive	25.1		2.7	43%			CCOC(=O)/C=C\C(=O)N[C@@H](Cc1ccccc1)C(=O)N[C@@H](C)C(=O)OCc1ccccc1	inactive		3	
	16.7	100		inactive		198	CCOC(=O)/C=C\[C@H](Cc1ccccc1)NC(=O)OC(C)(C)C		inactive		
inactive				inactive	inactive		CCOC(=O)/C=C/COC(=O)[C@H](CCC(N)=O)NC(=O)[C@H](CC(C)C)NC(=O)OC(C)(C)C	inactive	inactive		
inactive	10.5	14.6					CC(C)C[C@H](NC(=O)[C@H](C)NC(=O)[C@H](Cc1ccccc1)NC(=O)/C=C\C(=O)O)C(=O)OCc1ccccc1				
inactive				inactive	inactive		CCOC(=O)/C=C/N[C@@H](CCC(N)=O)C(=O)OC(C)(C)C	inactive	inactive		
inactive				inactive	inactive		CCOC(=O)/C=C/CN[C@@H](CCC(N)=O)C(=O)OC(C)(C)C	inactive	inactive		
inactive	12	7.3	25.1	20%			CCOC(=O)/C=C/C(=O)N[C@@H](CC(=O)NC(c1ccccc1)(c1ccccc1)c1ccccc1)C(=O)OC				
inactive	25.1			inactive			CCOC(=O)/C=C/COC(=O)[C@H](CC(N)=O)NC(=O)[C@H](CC(C)C)NC(=O)OC(C)(C)C	inactive	inactive		
inactive		13.2		inactive	inactive		CCOC(=O)/C=C/COC(=O)[C@H](CC(N)=O)NC(=O)[C@@H](NC(=O)OC(C)(C)C)C1CCCCC1		inactive		

Structure (SMILES)	inhibition (Plasmodium falciparum [1])	Ki [2] [µM]	IC50 (Plasmodium falciparum [3]) [µM]	IC50 [4] [µM]	inhibition [6]	inhibition (Plasmodium falciparum [8])	Ki [10] [µM]	inhibition (Plasmodium falciparum [5])	inhibition [7]	IC50 [9] [µM]	inhibition at 100 µM (Plasmodium falciparum [5]) [%]
CC(C)C[C@H](NC(=O)[C@H](CCC(N)=O)NC(=O)/C=C/CO)C(=O)N[C@H](C(=O)N[C@H](C(N)=O)C(C)C)C(C)C (X1-QLVV-NH2)					inactive	27%					
